Among the data in ChEMBL document CHEMBL5465560, “Selectivity Literature for EUbOPEN Chemogenomic Library” (2024) are % of control and % of inhibition values, retold here.

Each structure is given as a SMILES string.

For one assay, the target named is Aurora kinase B (Homo sapiens, UniProt Q96GD4). Nature of the assay: Selectivity interaction (Kinase panel (Z-LYTE Assay)) EUB0001632a AURKB. The conditions noted are these: at 10 µM.
Assay [1] has as its target Calcium/calmodulin-dependent protein kinase type II subunit beta (Homo sapiens) (UniProt Q13554). Nature of the assay: Selectivity interaction (Kinase panel (Z-LYTE Assay)) EUB0001632a CAMK2B. The conditions noted are these: at 10 µM.
For assay [2], the target named is Myosin light chain kinase, smooth muscle (Homo sapiens, UniProt Q15746). The assay is described as follows: Selectivity interaction (Kinase panel (Invitrogen)) EUB0000639a MYLK. Conditions: at 200 nM.
Assay [3] deals with T1, Serine/threonine-protein kinase TAO2 (Homo sapiens) (UniProt Q9UL54).
T1 sequence (whole entry): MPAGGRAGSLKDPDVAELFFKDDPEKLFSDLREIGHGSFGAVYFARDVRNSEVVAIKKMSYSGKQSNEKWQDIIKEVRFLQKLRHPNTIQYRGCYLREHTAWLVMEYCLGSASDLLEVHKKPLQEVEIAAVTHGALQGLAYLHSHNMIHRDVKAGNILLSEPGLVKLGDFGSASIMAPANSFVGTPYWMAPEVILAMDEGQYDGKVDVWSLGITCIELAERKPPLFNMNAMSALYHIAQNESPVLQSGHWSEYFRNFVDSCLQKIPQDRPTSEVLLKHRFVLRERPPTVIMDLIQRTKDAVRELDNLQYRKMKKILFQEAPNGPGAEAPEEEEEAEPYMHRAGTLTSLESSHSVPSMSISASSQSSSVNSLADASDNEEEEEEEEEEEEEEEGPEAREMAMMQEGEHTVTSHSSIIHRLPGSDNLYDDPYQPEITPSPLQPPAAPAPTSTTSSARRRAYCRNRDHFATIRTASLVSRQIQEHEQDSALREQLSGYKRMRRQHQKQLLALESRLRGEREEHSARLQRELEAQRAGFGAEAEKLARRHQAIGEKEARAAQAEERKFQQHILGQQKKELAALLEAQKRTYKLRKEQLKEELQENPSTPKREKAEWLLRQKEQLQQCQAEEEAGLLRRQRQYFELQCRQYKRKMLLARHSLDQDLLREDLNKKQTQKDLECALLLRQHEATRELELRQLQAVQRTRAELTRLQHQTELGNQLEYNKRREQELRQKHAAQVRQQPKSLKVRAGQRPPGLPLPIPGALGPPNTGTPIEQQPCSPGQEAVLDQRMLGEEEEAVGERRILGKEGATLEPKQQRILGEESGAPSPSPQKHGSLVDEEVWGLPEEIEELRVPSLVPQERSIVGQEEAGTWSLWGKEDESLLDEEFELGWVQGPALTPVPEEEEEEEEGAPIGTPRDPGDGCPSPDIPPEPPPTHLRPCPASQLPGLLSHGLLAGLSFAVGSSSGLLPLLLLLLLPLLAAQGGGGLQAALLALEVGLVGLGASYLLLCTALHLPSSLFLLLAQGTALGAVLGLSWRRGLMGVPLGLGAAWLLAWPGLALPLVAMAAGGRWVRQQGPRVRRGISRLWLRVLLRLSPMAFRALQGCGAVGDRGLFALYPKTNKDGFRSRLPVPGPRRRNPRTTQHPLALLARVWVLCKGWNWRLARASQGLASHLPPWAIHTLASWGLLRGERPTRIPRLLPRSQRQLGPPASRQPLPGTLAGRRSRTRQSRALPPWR
Nature of the assay: Selectivity interaction (ProQinase) EUB0000171b TAOK2.

Assay [4] concerns the target T2, Serine/threonine-protein kinase STK11 (Homo sapiens) (UniProt Q15831).
T2 sequence (whole entry): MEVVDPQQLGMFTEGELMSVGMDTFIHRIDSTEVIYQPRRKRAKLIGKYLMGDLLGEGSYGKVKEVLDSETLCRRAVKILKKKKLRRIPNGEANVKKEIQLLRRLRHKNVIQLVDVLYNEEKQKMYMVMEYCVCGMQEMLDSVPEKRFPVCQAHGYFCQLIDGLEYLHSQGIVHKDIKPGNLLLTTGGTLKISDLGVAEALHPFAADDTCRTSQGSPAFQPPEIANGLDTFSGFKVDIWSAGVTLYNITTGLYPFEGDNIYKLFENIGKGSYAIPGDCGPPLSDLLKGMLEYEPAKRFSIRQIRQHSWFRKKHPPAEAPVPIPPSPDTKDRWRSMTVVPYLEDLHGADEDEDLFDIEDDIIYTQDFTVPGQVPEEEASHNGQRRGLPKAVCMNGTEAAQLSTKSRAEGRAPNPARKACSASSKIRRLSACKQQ
The assay is described as follows: Selectivity interaction (Ambit KINOMEscan and KiNATiv profiling in Jurkat cells) EUB0000090b STK11. It counts as cell-based. Conditions: at 1 µM.

Assay [5] concerns the target T3, Dual specificity protein kinase TTK (Homo sapiens) (UniProt P33981).
T3 sequence (whole entry): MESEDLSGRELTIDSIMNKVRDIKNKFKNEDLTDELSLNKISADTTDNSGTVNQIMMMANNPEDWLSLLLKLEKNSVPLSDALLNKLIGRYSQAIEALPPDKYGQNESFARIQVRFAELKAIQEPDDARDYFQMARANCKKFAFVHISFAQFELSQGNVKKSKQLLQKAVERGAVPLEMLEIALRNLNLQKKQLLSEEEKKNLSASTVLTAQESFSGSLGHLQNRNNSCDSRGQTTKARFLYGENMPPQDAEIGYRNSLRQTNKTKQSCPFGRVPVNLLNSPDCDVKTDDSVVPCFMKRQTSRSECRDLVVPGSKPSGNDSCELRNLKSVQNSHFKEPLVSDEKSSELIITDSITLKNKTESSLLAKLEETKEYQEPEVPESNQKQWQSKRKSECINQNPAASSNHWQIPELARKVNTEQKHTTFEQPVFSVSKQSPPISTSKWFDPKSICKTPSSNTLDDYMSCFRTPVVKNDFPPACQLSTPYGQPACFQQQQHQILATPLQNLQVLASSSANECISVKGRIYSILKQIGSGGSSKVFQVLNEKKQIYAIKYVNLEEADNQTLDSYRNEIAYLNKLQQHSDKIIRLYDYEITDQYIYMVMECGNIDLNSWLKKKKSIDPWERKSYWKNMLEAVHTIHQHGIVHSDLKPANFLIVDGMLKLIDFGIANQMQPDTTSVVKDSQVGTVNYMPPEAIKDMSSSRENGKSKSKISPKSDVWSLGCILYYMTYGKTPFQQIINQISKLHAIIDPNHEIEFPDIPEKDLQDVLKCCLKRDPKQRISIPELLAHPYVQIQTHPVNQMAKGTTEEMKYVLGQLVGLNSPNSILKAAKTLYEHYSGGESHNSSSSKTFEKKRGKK
Nature of the assay: Selectivity interaction (KinomeScan (DiscoverX)) EUB0001079a TTK. Conditions: at 1 µM.

Myosin light chain kinase, smooth muscle, sequence (Q15746 whole entry): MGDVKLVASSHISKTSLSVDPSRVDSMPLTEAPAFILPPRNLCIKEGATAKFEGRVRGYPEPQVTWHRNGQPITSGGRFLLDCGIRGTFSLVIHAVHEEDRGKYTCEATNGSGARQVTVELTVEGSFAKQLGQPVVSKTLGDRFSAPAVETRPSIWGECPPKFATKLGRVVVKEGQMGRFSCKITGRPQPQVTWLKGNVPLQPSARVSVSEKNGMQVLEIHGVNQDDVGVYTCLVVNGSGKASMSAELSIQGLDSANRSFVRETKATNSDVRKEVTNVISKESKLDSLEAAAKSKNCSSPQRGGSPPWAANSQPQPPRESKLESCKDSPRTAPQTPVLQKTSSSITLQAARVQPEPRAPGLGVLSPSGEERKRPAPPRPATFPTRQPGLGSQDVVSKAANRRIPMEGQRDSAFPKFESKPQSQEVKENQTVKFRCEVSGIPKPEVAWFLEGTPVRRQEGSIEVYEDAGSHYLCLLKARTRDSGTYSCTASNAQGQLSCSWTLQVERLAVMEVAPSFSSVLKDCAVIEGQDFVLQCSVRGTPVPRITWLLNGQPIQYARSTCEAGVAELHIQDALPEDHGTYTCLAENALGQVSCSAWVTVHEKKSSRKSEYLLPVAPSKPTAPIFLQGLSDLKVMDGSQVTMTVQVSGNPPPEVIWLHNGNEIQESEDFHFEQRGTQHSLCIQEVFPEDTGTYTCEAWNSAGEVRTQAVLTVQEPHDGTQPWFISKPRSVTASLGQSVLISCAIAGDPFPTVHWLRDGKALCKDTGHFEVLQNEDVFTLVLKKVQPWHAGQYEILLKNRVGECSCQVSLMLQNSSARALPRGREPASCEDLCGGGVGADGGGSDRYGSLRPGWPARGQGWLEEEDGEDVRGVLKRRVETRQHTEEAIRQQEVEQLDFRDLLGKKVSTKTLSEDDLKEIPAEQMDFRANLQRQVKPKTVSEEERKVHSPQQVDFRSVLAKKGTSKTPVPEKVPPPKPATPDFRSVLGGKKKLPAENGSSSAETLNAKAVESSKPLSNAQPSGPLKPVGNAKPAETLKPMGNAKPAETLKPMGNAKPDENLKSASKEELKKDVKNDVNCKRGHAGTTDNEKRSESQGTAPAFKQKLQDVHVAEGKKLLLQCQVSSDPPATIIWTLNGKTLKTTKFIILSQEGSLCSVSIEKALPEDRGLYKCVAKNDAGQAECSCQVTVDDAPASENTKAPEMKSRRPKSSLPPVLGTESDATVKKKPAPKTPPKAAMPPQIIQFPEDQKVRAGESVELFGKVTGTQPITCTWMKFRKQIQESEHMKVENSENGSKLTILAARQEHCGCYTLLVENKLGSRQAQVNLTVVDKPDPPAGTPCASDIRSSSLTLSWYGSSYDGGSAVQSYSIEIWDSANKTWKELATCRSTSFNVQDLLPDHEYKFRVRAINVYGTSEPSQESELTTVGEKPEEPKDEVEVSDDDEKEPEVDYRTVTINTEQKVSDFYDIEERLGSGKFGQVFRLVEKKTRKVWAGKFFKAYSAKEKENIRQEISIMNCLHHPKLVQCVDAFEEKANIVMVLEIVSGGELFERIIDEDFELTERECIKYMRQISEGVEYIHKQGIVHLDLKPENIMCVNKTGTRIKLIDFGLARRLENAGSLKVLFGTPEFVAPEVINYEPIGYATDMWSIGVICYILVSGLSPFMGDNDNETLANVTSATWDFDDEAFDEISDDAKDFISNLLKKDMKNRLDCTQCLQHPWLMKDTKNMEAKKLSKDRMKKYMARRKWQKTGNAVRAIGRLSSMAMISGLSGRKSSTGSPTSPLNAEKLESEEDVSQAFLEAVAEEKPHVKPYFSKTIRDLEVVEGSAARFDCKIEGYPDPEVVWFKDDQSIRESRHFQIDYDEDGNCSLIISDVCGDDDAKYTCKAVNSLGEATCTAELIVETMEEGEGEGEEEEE
Calcium/calmodulin-dependent protein kinase type II subunit beta (Homo sapiens), sequence (Q13554 whole entry): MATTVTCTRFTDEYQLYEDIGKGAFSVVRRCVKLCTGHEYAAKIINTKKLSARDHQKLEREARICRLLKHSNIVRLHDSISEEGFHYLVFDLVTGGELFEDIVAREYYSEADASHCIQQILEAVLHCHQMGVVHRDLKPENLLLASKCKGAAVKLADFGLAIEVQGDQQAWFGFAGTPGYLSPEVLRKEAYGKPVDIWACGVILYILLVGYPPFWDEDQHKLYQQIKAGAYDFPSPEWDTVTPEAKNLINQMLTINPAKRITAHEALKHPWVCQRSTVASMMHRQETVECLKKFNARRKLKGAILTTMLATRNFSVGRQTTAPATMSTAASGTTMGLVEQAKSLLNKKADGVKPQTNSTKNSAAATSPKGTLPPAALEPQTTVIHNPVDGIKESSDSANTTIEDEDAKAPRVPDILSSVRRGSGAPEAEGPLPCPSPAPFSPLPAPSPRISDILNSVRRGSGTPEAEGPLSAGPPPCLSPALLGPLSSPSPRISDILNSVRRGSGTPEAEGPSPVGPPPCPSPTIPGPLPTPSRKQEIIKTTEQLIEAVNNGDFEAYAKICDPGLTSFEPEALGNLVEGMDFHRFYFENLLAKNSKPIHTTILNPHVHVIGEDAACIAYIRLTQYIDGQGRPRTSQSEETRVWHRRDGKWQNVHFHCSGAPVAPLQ
Aurora kinase B, sequence (Q96GD4 whole entry): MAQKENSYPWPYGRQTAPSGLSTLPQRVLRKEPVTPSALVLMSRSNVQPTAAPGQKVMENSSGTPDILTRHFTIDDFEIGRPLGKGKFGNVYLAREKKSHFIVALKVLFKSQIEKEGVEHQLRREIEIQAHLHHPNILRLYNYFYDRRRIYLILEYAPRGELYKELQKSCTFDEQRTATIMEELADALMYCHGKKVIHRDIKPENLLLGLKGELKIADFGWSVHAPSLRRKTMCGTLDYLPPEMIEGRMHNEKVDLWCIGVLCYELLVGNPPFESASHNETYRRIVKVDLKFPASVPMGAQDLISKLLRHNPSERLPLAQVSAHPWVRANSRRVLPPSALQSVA

On to `Cn1cc(-n2cnc3c(NCc4nc5cc(Cl)c(Cl)cc5[nH]4)nc(N4CCOCC4)nc32)cn1`, for which the figures for the % of control (at Aurora kinase B; in assay [1]) were 11.8% and 1.33%, respectively. Compound `CC[C@@H]1[C@H](F)C(=O)N[C@@H]1COc1nccc2cc(C(N)=O)c(OC)cc12` [ZIMLOVISERTIB] gave a % of inhibition in assay [2] of 8.89%. On to `C=CC(=O)Nc1cccc(C(=O)Nc2ccc(Nc3cc(-c4[nH]c(SC)nc4C)ccn3)cc2)c1`, for which the % of control was determined as 38% in assay [3] (at 1 µM) and 16% in assay [3] (at 5 µM). Consider `CN(C)C/C=C/C(=O)Nc1ccc(C(=O)N2CCCC(Nc3ncc(Cl)c(-c4c[nH]c5ccccc45)n3)C2)cc1` (configuration not stated), for which the % of control in assay [4] was found to be 94%. As for `Nc1cnc(N2CCc3cc(S(=O)(=O)Nc4c(F)cc(Cl)cc4F)cc(N4CCCC4=O)c32)nc1` [TP-020n], the % of control in assay [5] was 90%.
